Source: patent US11453660B2, “Androgen receptor and glucocorticoid receptor modulators” (ONCOSTELLAE, S.L., priority 2017, dated 2022)

Legend:
human androgen receptor = target: T1, human androgen receptor (Homo sapiens, UniProt P10275, T878A); assay: Human Androgen Receptor Binding (radioligand binding, LnCap prostate cancer cell line); conditions: LnCap cells, displacement of [^3H]-methyltrienolone, 2 hours at 37° C.; read-out: AR LNCaP
T1 construct: endogenously expressed human androgen receptor using the LnCap prostate cancer cell line; endogenous in cells; host or cells: LNCaP prostate cancer cell line (whole cells)
T1 sequence (P10275 1-920 T878A): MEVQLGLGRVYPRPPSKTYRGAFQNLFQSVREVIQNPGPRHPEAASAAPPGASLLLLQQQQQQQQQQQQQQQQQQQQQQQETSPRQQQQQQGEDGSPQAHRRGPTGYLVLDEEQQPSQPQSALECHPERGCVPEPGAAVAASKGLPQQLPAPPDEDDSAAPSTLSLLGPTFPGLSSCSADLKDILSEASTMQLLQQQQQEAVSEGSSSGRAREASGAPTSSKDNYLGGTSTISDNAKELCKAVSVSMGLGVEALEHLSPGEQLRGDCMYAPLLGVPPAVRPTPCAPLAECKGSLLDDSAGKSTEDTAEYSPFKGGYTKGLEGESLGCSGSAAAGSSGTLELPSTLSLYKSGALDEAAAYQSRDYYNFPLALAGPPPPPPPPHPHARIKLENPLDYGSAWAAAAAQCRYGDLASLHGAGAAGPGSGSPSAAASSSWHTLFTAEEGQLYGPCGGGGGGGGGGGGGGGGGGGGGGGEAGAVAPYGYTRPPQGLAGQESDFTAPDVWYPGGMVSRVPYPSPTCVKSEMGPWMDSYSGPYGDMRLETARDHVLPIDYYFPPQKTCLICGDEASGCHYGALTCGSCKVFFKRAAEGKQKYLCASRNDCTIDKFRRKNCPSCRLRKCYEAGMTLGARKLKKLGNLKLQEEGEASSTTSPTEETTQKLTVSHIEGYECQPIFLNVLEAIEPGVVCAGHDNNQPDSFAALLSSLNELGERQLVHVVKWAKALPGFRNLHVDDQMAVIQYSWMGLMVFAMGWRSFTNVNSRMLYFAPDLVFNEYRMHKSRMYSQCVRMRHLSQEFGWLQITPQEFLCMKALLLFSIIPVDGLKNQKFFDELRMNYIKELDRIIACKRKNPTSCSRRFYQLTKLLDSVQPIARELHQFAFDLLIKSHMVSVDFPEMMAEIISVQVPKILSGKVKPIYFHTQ
Procedure: Human Androgen Receptor Binding
Radioligand binding studies were carried out on endogenously expressed human androgen receptor using the LnCap prostate cancer cell line. The test is based on measuring radioactively labelled AR ligand [^3H]-methyltrienolone that gets displaced by increasing concentrations of test compound. The test is performed in 96-well plates (Falcon, #353072). Positive and negative controls are also required in each analyzed plate to evaluate the total and non-specific binding binding of the radioligand to the receptor. Cells (60000 per well) were incubated for 24 hours before executing the experiment at 37° C. and in a 5% CO2 atmosphere. Medium was replaced by assay buffer (RPMI-640 (ATCC #30-2001) supplemented with 0.1% bovine serum albumin (Sigma #8806-56) and Triamcinolone acetonide (Sigma #T6501)). The compounds at the desired concentrations and [^3H]methyltrienolone (Perkin Elmer #NET590) were added to the wells.
In order to obtain a dose-response curve and calculate the potency of inhibition (expressed as IC50) for AR, a series of 1:10 dilutions in test in 1× buffer from 10 μM to 0.1 nM for each compound was carried out.
Cells were incubated for 2 hours at 37° C. in a 5% CO2 atmosphere and then washed twice with ice-cold HBSS. Then cells were lysed with solubilization buffer (Hank's Balanced Salt Solution (HBSS, Sigma #H6648), 0.5% Sodium dodecyl sulfate 0.5% (SDS, Sigma #L7390-500G, Lote: 078K0102) and 20% Glycerol (Sigma Aldrich, #G2025) for 30 minutes at RT. 75 μL aliquots were taken from each well and transferred to a 96-well flexiplate (Perkin Elmer #1450-401) and mixed with 100 μL of scintillation cocktail (Optiphase supermix, PerkinElmer, #1200-439). Plates are shaken for 60 minutes and radioactivity was measured in a beta scintillation counter (Microbeta Trilux, Perkin Elmer).

[1] = target: T2, Human Glucocorticoid Receptor (Homo sapiens, UniProt P04150); assay: Competition Binding in IM-9 Human Glucocorticoid Receptor (GR IM-9); conditions: cytosol from IM-9 cell line, 1.5 nM [3H]-Dexamethasone, 4° C. for 6 hours
T2 construct: endogenous in cells; host or cells: cytosol from IM-9 cell line
T2 sequence (P04150 1-777): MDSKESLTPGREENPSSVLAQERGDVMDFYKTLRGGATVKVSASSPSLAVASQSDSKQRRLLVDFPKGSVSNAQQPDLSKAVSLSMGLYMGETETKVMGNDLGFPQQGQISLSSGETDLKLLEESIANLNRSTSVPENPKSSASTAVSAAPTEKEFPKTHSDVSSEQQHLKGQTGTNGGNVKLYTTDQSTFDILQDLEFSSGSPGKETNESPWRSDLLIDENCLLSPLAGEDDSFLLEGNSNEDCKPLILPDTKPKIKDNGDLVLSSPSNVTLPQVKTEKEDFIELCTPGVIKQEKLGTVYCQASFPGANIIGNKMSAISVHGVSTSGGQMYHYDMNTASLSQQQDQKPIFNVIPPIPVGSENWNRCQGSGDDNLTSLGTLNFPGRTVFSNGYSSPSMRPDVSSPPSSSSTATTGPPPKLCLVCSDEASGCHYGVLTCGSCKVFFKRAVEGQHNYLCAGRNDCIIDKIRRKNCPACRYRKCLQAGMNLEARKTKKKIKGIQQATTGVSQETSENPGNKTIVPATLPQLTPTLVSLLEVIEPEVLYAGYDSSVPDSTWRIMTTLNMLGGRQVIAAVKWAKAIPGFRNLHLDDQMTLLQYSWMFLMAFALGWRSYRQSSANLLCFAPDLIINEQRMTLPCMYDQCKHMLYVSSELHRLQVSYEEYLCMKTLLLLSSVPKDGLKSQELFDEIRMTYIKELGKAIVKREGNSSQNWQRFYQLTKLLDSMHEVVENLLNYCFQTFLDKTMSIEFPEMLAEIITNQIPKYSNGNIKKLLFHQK
In short: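 Radioligand competition using 100 μg IM-9 cell cytosol and 1.5 nM [3H]-dexamethasone, incubated 6 h at 4° C in TES/molybdate buffer, pH 7.4. Filtration on PEI-treated GF/B filters, scintillation counting; nonspecific binding defined with 10 μM triamcinolone.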

SMILES	IC50 (human androgen receptor)	IC50 [1]
COC(=O)C1=C(C#N)NC(C2CC2)=C(C(=O)OC)C1c1csc2c(C#N)cccc12 (stereo not drawn) [Example C112, Dimethyl 2-cyano-4-(7-cyanobenzo[b]thiophen-3-yl)-6-cyclopropyl-1,4-dihydropyridine-3,5-dicarboxylate]	100 to 1000 nM	< 100 nM
CC(=O)C1=C(C)NC(C(F)(F)F)=C(C(=O)OCc2ccccc2)C1c1csc2ncccc12 (stereo not drawn) [Example C56, Benzyl 5-acetyl-6-methyl-4-(thieno[2,3-b]pyridin-3-yl)-2-(trifluoromethyl)-1,4-dihydropyridine-3-carboxylate]	100 to 1000 nM	< 100 nM
CC(=O)C1=C(C)NC(C)=C(C(=O)OC2CCC(C)(C)CC2)C1c1csc2ncccc12 (stereo not drawn) [Example C76, 4,4-dimethylcyclohexyl 5-acetyl-2,6-dimethyl-4-(thieno[2,3-b]pyridin-3-yl)-1,4-dihydropyridine-3-carboxylate]	≥ 1000 nM	< 100 nM
CC(=O)C1=C(C)NC(C)=C(C(=O)OCc2ccc(F)cc2)C1c1csc2ncccc12 (stereo not drawn) [Example C47, 4-Fluorobenzyl 5-acetyl-2,6-dimethyl-4-(thieno[2,3-b]pyridin-3-yl)-1,4-dihydropyridine-3-carboxylate]	100 to 1000 nM	< 100 nM
COC(=O)C1=C(C)NC(C#N)=C(C(=O)OC)C1c1csc2c(C#N)cccc12 (stereo not drawn) [Example C113, Dimethyl 2-cyano-4-(7-cyanobenzo[b]thiophen-3-yl)-6-methyl-1,4-dihydropyridine-3,5-dicarboxylate]	100 to 1000 nM	< 100 nM
CC(=O)C1=C(C)NC(C)=C(C(=O)OC2CCOCC2)C1c1csc2ncccc12 (stereo not drawn) [Example C78, Tetrahydro-2H-pyran-4-yl 5-acetyl-2,6-dimethyl-4-(thieno[2,3-b]pyridin-3-yl)-1,4-dihydropyridine-3-carboxylate]	≥ 1000 nM	100 to 1000 nM
CC(=O)C1=C(C)NC(C)=C(C(=O)OC2CCCC2)C1c1csc2ncccc12 (stereo not drawn) [Example C37, Cyclopentyl 5-acetyl-2,6-dimethyl-4-(thieno[2,3-b]pyridin-3-yl)-1,4-dihydropyridine-3-carboxylate]	< 100 nM	< 100 nM

The remaining lines, values ahead:

IC50 (human androgen receptor)	IC50 [1]	SMILES
100 to 1000 nM	< 100 nM	COC(=O)C1=C(C)NC(N)=C(C(=O)OCC2CC2)C1c1csc2c(C#N)ccc(F)c12 (stereo not drawn) [Example D40, 3-(cyclopropylmethyl) 5-methyl 2-amino-4-(7-cyano-4-fluorobenzo[b]thiophen-3-yl)-6-methyl-1,4-dihydropyridine-3,5-dicarboxylate]
100 to 1000 nM	100 to 1000 nM	N#CC1=C(N)NC(C2CC2)=C(C(=O)OCC2CC2)C1c1csc2c(C#N)cccc12 (stereo not drawn) [Example D26, Cyclopropylmethyl 6-amino-5-cyano-4-(7-cyanobenzo[b]thiophen-3-yl)-2-cyclopropyl-1,4-dihydropyridine-3-carboxylate]
100 to 1000 nM	< 100 nM	COC(=O)C1=C(C)NC(N)=C(C(=O)OCC2C(C)(C)C2(F)F)C1c1csc2c(C#N)cccc12 (stereo not drawn) [Example D42, 3-((2,2-Difluoro-3,3-dimethylcyclopropyl)methyl) 5-methyl 2-amino-4-(7-cyanobenzo[b]thiophen-3-yl)-6-methyl-1,4-dihydropyridine-3,5-dicarboxylate]
100 to 1000 nM	100 to 1000 nM	CC1=C(C(N)=O)C(c2csc3c(C#N)cccc23)C(C(=O)OCC2CC2)=C(N)N1 (stereo not drawn) [Example D35, Cyclopropylmethyl 2-amino-5-carbamoyl-4-(7-cyanobenzo[b]thiophen-3-yl)-6-methyl-1,4-dihydropyridine-3-carboxylate]
≥ 1000 nM	≥ 1000 nM	COC(=O)C1=C(C2CC2)NC(C)=C(C(C)=O)C1c1csc2c(C(=O)NC3CC3)cccc12 (stereo not drawn) [Example J27, Methyl 5-acetyl-2-cyclopropyl-4-(7-(cyclopropylcarbamoyl)benzo[b]thiophen-3-yl)-6-methyl-1,4-dihydropyridine-3-carboxylate]
≥ 1000 nM	< 100 nM	COC(=O)C1=C(C)NC(N)=C(C(=O)OCc2ccc(F)cc2)C1c1csc2c(C#N)cccc12 (stereo not drawn) [Example D22, 3-(4-fluorobenzyl) 5-methyl 2-amino-4-(7-cyanobenzo[b]thiophen-3-yl)-6-methyl-1,4-dihydropyridine-3,5-dicarboxylate]
≥ 1000 nM	< 100 nM	CC1=C(C#N)C(c2csc3c(C#N)cccc23)C(C(=O)OCc2ccc(F)cc2)=C(N)N1 (stereo not drawn) [Example D25, 4-Fluorobenzyl 2-amino-5-cyano-4-(7-cyanobenzo[b]thiophen-3-yl)-6-methyl-1,4-dihydropyridine-3-carboxylate]
100 to 1000 nM	< 100 nM	COC(=O)C1=C(C2CC2)NC(N)=C(C(=O)OCc2ccc(F)cc2)C1c1csc2c(C#N)cccc12 (stereo not drawn) [Example D23, 3-(4-fluorobenzyl) 5-methyl 2-amino-4-(7-cyanobenzo[b]thiophen-3-yl)-6-cyclopropyl-1,4-dihydropyridine-3,5-dicarboxylate]
100 to 1000 nM	100 to 1000 nM	COC(=O)C1=C(C(=O)OC)C(c2csc3c(C#N)cccc23)C(C(C)=O)=C(C)N1 (stereo not drawn) [Example I2, Dimethyl 5-acetyl-4-(7-cyanobenzo[b]thiophen-3-yl)-6-methyl-1,4-dihydropyridine-2,3-dicarboxylate]
< 100 nM	< 100 nM	COC(=O)C1=C(C2CC2)NC(C)=C(C(C)=O)C1c1csc2c(C#N)cccc12 (stereo not drawn) [Example J28, Methyl 5-acetyl-4-(7-cyanobenzo[b]thiophen-3-yl)-2-cyclopropyl-6-methyl-1,4-dihydropyridine-3-carboxylate]
100 to 1000 nM	< 100 nM	COC(=O)C1=C(C2CC2)NC(N)=C(C(=O)OCC2CC2(F)F)C1c1csc2c(C#N)cccc12 (stereo not drawn) [Example D38, 3-((2,2-Difluorocyclopropyl)methyl) 5-methyl 2-amino-4-(7-cyanobenzo[b]thiophen-3-yl)-6-cyclopropyl-1,4-dihydropyridine-3,5-dicarboxylate]
